# Test results from US11020399B2, “Intermediates useful in the synthesis of compounds as modulators of protein kinases” (Rhizen Pharmaceuticals SA, priority 2011, dated 2021).
# Experiments:
# Format in all cases: biochemical
# [1] = molecular target: PI3kβ (Homo sapiens, UniProt P42338); test: Fluorescent (HTRF) determination of PI3 kinase enzyme activity, PI3Kβ
# Procedure, shortened: (§1)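 Compounds tested at 1 μM on α and β isoforms and at 0.3 or 0.1 μM on γ and δ, with percent inhibition from blank and enzyme controls, plus IC50 fits. Room-temperature reaction: 10 min enzyme–compound preincubation in MgCl2/DTT buffer with 1.38 μM PIP2, then 30 min after 400 μM ATP addition; PIP3 read by HTRF (665/620 nm).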
# [2] = molecular target: PI3kδ (Homo sapiens, UniProt O00329); test: Fluorescent (HTRF) determination of PI3 kinase enzyme activity, PI3Kδ; settings: for % inhibition (PI3kδ) 100 nM / inhibition at 0.1 µM: 100 nM (Examples 60-137)
# Procedure, shortened: as §1
# [3] = molecular target: PI3kγ (Homo sapiens, UniProt P48736); test: Fluorescent (HTRF) determination of PI3 kinase enzyme activity, PI3Kγ; settings: for % inhibition (PI3kγ) 100 nM / inhibition at 0.1 µM: 100 nM (Examples 60-137); for % inhibition (PI3kγ) 100 nM: 0.1 µM
# Procedure, shortened: as §1
# [4] = molecular target: PI3kα (Homo sapiens, UniProt P42336); test: Fluorescent (HTRF) determination of PI3 kinase enzyme activity, PI3Kα; settings: 1 uM
# Procedure, shortened: as §1
# Chain of PI3kβ (P42338 whole entry, canonical isoform): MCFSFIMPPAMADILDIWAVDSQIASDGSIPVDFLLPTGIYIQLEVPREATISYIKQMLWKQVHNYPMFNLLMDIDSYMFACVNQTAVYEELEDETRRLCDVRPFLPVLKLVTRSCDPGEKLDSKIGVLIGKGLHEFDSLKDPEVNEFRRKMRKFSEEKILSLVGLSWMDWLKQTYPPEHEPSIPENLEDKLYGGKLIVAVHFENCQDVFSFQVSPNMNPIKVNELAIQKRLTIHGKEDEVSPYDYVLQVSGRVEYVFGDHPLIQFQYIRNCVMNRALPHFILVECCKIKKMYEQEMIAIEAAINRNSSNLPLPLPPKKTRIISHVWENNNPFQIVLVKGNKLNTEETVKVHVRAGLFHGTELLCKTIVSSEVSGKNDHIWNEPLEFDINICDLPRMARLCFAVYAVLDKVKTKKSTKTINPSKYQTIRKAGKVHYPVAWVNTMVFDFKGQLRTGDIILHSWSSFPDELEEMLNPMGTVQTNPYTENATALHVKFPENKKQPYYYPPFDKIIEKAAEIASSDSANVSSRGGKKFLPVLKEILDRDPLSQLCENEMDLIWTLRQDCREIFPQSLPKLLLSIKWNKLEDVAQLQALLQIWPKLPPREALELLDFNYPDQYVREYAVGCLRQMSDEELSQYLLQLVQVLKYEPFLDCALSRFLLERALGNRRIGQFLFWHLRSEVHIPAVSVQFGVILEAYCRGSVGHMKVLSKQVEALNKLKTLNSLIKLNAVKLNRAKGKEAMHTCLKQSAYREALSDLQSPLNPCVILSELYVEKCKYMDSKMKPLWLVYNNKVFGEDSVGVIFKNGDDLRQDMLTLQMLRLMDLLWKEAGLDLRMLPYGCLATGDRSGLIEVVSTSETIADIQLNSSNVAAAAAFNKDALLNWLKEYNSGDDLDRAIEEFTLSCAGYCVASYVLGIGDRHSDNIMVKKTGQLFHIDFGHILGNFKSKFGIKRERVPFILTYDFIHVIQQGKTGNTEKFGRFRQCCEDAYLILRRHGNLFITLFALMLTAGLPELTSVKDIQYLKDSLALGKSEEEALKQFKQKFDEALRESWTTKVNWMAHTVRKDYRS
# Chain of PI3kβ (P27986 whole entry partner, canonical isoform): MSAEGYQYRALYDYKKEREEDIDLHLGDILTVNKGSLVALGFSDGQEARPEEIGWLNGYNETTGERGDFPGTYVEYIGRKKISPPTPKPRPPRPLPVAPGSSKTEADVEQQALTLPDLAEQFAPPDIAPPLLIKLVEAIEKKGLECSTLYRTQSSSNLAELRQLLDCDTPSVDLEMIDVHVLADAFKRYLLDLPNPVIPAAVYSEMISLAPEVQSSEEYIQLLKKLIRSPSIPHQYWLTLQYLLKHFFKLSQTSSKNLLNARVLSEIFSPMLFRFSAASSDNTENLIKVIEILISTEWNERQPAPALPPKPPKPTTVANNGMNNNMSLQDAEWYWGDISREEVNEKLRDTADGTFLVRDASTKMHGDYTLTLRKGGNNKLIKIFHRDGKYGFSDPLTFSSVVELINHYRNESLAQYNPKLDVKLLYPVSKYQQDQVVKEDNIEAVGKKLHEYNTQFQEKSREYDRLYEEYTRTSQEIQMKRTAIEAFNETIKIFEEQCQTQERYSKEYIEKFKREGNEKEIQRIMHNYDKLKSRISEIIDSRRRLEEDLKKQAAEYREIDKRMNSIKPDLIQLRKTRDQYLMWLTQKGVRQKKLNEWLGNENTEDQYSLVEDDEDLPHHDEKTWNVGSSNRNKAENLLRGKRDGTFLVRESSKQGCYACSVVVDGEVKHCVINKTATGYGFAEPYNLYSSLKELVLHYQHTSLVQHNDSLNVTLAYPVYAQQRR
# Chain of PI3kδ (O00329 whole entry): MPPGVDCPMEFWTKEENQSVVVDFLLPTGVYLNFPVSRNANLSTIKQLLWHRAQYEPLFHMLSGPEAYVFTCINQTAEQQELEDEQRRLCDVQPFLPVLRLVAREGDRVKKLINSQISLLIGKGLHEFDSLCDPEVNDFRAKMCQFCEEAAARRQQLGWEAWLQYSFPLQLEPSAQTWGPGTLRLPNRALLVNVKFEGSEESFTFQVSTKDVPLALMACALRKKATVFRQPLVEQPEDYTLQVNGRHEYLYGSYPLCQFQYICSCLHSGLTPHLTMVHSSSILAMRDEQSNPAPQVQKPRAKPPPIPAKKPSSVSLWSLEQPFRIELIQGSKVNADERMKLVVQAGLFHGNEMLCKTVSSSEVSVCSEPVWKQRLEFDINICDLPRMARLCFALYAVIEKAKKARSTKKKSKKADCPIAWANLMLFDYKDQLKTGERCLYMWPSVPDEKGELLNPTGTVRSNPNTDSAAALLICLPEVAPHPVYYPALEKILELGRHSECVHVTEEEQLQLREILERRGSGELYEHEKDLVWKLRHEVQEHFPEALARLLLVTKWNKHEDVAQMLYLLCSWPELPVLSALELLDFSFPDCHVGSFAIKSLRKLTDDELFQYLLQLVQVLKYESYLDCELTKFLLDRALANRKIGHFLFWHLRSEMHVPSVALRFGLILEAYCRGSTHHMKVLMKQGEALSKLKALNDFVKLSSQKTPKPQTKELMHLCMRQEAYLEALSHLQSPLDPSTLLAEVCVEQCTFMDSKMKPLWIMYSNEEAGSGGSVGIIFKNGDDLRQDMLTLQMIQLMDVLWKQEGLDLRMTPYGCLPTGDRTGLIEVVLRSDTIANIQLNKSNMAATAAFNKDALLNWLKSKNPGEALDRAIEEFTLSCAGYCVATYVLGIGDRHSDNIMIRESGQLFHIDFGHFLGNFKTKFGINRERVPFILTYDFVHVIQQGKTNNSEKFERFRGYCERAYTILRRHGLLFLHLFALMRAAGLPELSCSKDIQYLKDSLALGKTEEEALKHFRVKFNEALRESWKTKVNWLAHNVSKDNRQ
# Chain of PI3kδ (P27986 whole entry partner): as the sequence (P27986 whole entry partner, canonical isoform) above
# Chain of PI3kα (P42336 whole entry): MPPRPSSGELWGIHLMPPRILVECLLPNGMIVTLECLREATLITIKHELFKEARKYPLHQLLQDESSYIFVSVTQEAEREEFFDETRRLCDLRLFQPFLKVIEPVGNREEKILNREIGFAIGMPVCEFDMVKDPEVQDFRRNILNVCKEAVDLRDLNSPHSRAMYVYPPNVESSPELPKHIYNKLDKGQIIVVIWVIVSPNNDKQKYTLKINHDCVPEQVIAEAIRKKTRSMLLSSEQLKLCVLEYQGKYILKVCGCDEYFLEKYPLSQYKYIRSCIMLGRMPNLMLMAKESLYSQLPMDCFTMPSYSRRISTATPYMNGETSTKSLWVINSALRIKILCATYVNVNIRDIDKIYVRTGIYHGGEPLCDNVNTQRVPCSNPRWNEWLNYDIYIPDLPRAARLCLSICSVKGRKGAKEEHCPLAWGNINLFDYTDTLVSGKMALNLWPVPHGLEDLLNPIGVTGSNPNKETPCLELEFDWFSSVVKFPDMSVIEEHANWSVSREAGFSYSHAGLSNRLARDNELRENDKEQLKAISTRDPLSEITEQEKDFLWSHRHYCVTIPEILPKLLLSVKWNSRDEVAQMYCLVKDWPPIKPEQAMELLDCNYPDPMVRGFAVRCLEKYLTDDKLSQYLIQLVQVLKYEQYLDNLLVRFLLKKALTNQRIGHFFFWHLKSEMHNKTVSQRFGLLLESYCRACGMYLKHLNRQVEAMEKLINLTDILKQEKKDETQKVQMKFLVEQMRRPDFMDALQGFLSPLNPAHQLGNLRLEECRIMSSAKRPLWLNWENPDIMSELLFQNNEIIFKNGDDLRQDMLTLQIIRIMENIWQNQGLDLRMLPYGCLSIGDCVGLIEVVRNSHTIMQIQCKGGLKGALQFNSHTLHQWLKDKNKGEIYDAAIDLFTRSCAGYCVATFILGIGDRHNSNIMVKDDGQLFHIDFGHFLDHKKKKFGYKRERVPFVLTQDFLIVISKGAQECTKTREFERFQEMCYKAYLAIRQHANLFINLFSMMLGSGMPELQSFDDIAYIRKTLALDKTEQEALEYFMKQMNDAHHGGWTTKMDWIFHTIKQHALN
# Chain of PI3kα (P27986 whole entry partner): as the sequence (P27986 whole entry partner, canonical isoform) above
# Chain of PI3kγ (P48736 whole entry): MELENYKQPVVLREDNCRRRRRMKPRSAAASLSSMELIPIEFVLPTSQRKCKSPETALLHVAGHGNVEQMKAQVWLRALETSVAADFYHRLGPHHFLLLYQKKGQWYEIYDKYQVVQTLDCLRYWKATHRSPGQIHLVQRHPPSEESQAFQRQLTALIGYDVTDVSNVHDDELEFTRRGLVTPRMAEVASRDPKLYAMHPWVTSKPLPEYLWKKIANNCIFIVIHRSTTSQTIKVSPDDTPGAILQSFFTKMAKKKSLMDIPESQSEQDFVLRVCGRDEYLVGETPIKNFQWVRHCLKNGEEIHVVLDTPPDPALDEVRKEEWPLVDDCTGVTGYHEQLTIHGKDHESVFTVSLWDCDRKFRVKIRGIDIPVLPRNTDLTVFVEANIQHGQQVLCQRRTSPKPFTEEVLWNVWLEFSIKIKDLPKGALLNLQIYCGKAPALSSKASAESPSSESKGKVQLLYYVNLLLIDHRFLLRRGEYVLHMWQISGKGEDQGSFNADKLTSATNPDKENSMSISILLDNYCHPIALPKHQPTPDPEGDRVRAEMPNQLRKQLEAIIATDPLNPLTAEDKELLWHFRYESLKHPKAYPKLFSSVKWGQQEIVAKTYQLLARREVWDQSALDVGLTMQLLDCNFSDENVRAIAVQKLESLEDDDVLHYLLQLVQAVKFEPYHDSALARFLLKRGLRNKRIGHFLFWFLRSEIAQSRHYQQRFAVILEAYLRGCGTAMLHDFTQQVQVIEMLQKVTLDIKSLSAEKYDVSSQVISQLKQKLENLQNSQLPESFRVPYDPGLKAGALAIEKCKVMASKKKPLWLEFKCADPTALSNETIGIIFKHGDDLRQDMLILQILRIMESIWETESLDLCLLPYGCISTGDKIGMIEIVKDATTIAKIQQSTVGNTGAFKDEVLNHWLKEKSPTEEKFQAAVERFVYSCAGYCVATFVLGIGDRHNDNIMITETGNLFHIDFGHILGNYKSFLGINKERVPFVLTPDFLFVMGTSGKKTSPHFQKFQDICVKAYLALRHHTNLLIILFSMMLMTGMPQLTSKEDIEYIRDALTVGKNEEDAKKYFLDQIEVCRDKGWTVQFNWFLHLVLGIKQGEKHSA
inhibition at 1 µM [1] [%],IC50 [2] [nM],IC50 [3] [nM],inhibition at 1 µM [4] [%],% inhibition (PI3kβ) 1 uM [1],% inhibition (PI3kα) 1 uM [4],also measured,SMILES
25 to 50,300 to 500,300 to 500,0 to 25,,,,"Cc1n[nH]c2cc(-c3nn([C@H](C)c4oc5cccc(F)c5c(=O)c4-c4cccc(F)c4)c4ncnc(N)c34)ccc12 [Example 9b, (−)-2-(1-(4-amino-3-(3-methyl-1H-indazol-6-yl)-1H-pyrazolo[3,4-d]pyrimidin-1-yl)ethyl)-5-fluoro-3-(3-fluorophenyl)-4H-chromen-4-one]"
,,,,C (C=>25 to 50%),D (D=0 to 25%),% inhibition (PI3kδ) 100 nM [2]: B (B=>50 to 75%); % inhibition (PI3kγ) 100 nM [3]: D (D=0 to 25%),"CC(c1oc2cccc(F)c2c(=O)c1-c1cccc(F)c1)n1nc(-c2ccc(N3CCOCC3)c(Cl)c2)c2c(N)ncnc21 (racemic) [Example 126, (S)/(R)-2-(1-(4-amino-3-(3-chloro-4-morpholinophenyl)-1H-pyrazolo[3,4-d]pyrimidin-1-yl)ethyl)-5-fluoro-3-(3-fluorophenyl)-4H-chromen-4-one]"
25 to 50,,100 to 300,50 to 75,,,inhibition at 0.1 µM [2]: 0 to 25%; inhibition at 0.1 µM [3]: 50 to 75%,"CC(C)Oc1ccc(-c2nn(C(C)c3oc4cccc(F)c4c(=O)c3-c3ccccc3)c3ncnc(N)c23)cc1F (single isomer, unassigned) [Example 101]"
25 to 50,50 to 100,≤ 50,0 to 25,,,inhibition at 0.3 µM ([2]; 300 nM (Examples 1-59)): 75 to 100%; inhibition at 0.3 µM ([3]; 300 nM (Examples 1-59)): 75 to 100%,"CC(C)Nc1ccc(-c2nn(C(C)c3oc4cccc(F)c4c(=O)c3-c3cccc(F)c3)c3ncnc(N)c23)cc1F (centres unmarked) [Example 23, 2-(1-(4-amino-3-(3-fluoro-4-(isopropylamino)phenyl)-1H-pyrazolo[3,4-d]pyrimidin-1-yl)ethyl)-5-fluoro-3-(3-fluorophenyl)-4H-chromen-4-one]"
,≤ 50,≤ 50,,B (B=>50 to 75%),D (D=0 to 25%),IC50 [1]: 300 to 500 nM,"CC(C)Oc1ccc(-c2nn(C(C)c3oc4cccc(F)c4c(=O)c3-c3cccc(F)c3)c3ncnc(N)c23)cc1F (single isomer, unassigned; (-)) [Example 8, (−)-2-(1-(4-amino-3-(3-fluoro-4-isopropoxyphenyl)-1H-pyrazolo[3,4-d]pyrimidin-1-yl)ethyl)-5-fluoro-3-(3-fluorophenyl)-4H-chromen-4-one]"
50 to 75,50 to 100,50 to 100,25 to 50,,,inhibition at 0.1 µM [2]: 50 to 75%; inhibition at 0.1 µM [3]: 25 to 50%,"CC(c1oc2cccc(F)c2c(=O)c1-c1cccc(F)c1)n1nc(-c2cccc(NS(C)(=O)=O)c2)c2c(N)ncnc21 (centres unmarked) [Example 128, N-(3-(4-amino-1-(1-(5-fluoro-3-(3-fluorophenyl)-4-oxo-4H-chromen-2-yl)ethyl)-1H-pyrazolo[3,4-d]pyrimidin-3-yl)phenyl)methanesulfonamide]"
50 to 75,≤ 50,≤ 50,,,C (C=>25 to 50%),,"CC(C)Oc1ccc(-c2nn(C(C)c3oc4cccc(F)c4c(=O)c3-c3cccc(F)c3)c3ncnc(N)c23)cc1F (single isomer, unassigned; (+)) [Example 7, (+)-2-(1-(4-amino-3-(3-fluoro-4-isopropoxyphenyl)-1H-pyrazolo[3,4-d]pyrimidin-1-yl)ethyl)-5-fluoro-3-(3-fluorophenyl)-4H-chromen-4-one]"
,,,,D (D=0 to 25%),C (C=>25 to 50%),% inhibition (PI3kδ) 100 nM ([2]; 0.1 µM): C (C=>25 to 50%); % inhibition (PI3kγ) 100 nM [3]: C (C=>25 to 50%),"Cc1cc(-c2nn(C(C)c3oc4cccc(F)c4c(=O)c3-c3cccc(F)c3)c3ncnc(N)c23)ccc1OC(C)C (single isomer, unassigned; (-)) [Example 115, (−) 2-(1-(4-amino-3-(4-isopropoxy-3-methylphenyl)-1H-pyrazolo[3,4-d]pyrimidin-1-yl)ethyl)-5-fluoro-3-(3-fluorophenyl)-4H-chromen-4-one]"
